Here are results for 1 compound from US9206124B2, “Treatment of drug-resistant cancer with 2-aryl-2-(3-indolyl) acetohydroxamates” (New Mexico Technical Research Foundation, priority 2013, dated 2015).

The test system of test [1] is Hs683 anaplastic oligodendroglioma cells. Briefly: MTT antiproliferative assay, Hs683. As to conditions: Homo sapiens, Hs 683, 48 h treatment, ± SD, apoptosis-sensitive reference, read-out: GI50 in vitro, Hs683. The class given is cell-based. On the procedure: (§1) As part of the ongoing efforts aimed at identification of compounds active against cancer cells displaying resistance to proapoptotic agents, the selected 2-aryl-2-(3-indolyl)-acetohydroxamates were evaluated for in vitro growth inhibition against a panel of additional cancer cell lines including those resistant to various proapoptotic stimuli, such as human T98G and U87 glioblastoma and human A549 non-small-cell-lung cancer (NSCLC), as well as an apoptosis-sensitive tumor model, such as human Hs683 anaplastic oligodendroglioma, used as a reference. The data reveal that for the most part these compounds retain the single-digit antiproliferatve GI50 values in this challenging cancer cell panel.
(§2) Human cancer cell lines were obtained from the American Type Culture Collection (ATCC, Manassas, Va., USA), the European Collection of Cell Culture (ECACC, Salisbury, UK) and the Deutsche Sammlung von Mikroorganismen and Zellkulturen (DSMZ, Braunschweig, Germany). Human cervical adenocarcinoma HeLa cells were cultured in DMEM supplemented with 10% fetal bovine serum (FBS). Human mammary carcinoma MCF-7 cells were cultured in RPMI supplemented with 10% FBS. The U87 cells (ATCC HTB-14) were cultured in DMEM culture medium, while the A549 cells (DSMZ ACC107) were cultured in RPMI culture medium supplemented with 10% heat-inactivated FBS. The glioblastoma multiforme Hs683 (ATCC HTB-138) and the T98G (ATCC CRL-1690) cell lines were cultivated in DMEM supplemented with 10% FBS. The Human uterine sarcoma MES-SA and MES-SA/Dx5 cells were cultured in RPMI-1640 medium supplemented with 10% FBS with MES SA/Dx5 maintained in the presence of 500 nM Doxorubicin (Sigma). SKMEL-28 cells (ATCC HTB72) and U373 glioblastoma cells (ECACC 08061901) were cultured in RPMI culture medium supplemented with 10% heat-inactivated FBS. Cell culture media were supplemented with 4 mM glutamine (Lonza code BE17-605E), 100 μg/mL gentamicin (Lonza code 17-5182), and penicillin-streptomycin (200 units/ml and 200 μg/ml) (Lonza code 17-602E). Neurosphere culture GBM 031810 was established using known methods and maintained in Neurobasal medium (Invitrogen Carlsbad, Calif.) with B27 supplement (20 ul/ml; Invitrogen), Glutamax (10 ul/ml; Invitrogen), fibroblast growth factor-2 (20 ng/ml; Peprotech, Rocky Hill, N.J., USA), epidermal growth factor (20 ng/ml; Peprotech), heparin (32 IE/ml; Sigma Aldrich, St. Louis, Mo.), and penicillin-streptomycin (1×, Invitrogen). Growth factors and heparin were renewed twice weekly. All cell lines were cultured in T25 flasks, maintained and grown at 37° C., 95% humidity, 5% CO2.
(§3) Antiproliferative properties of the synthesized compounds were evaluated by the MTT assay. All compounds were dissolved in DMSO at a concentration of either 100 mM or 50 mM prior to cell treatment. The cells were trypsinized and seeded at 4×10^3 cells per well into 96-well plates. The cells were grown for 24 h, treated with compounds at concentrations ranging from 0.001 to 100 μM and incubated for 48 h in 200 μL media. 20 μL of MTT reagent in serum free medium (5 mg/mL) was added to each well and incubated further for 2 h. Media was removed and the resulting formazan crystals were re-solubilized in 200 μL of DMSO. A490 was measured using a Molecular Devices Thermomax plate reader. The experiments were performed in quadruplicate and repeated at least twice for each compound per cell line. Cells treated with 0.1% DMSO were used as a negative control; 1 μM phenyl arsine oxide (PAO) was used as a positive control.

The subject of test [2] is A549 non-small-cell-lung cancer cells. Briefly: MTT antiproliferative assay, A549. The class given is cell-based, human. How it is done: as §1, §2, §3
Test [3] deals with HeLa cervical and MCF-7 breast adenocarcinomas. Briefly: In vitro growth inhibition (MTT). The class given is cell-based, human. To be noted: HeLa and MCF-7.
From the text: (§4) This finding led to an exploration of the SAR analyses by synthesizing the first generation compounds 3 containing diverse substituents at different positions in the 2-aryl-2-(3-indolyl)acetohydroxamate skeleton and testing this series for in vitro growth inhibition using the MTT colorimetric assay against two cell lines, human HeLa cervical and MCF-7 breast adenocarcinomas (Table 1). It emerged from these experiments that the substitution on the benzene ring of the indole moiety (R^2≠H) was not tolerated (e.g., 3abfa and 3acfa), whereas the nitrogen could be derivatized (R^1≠H) with only a small activity drop (e.g., 3bafa vs 3aafa).
as §3

The test system of test [4] is MCF-7 breast adenocarcinoma cells. Briefly: MTT antiproliferative assay, MCF-7. The format is cell-based. To be noted: Homo sapiens, MCF7, Table 1, 48 h treatment, ± SD, read-out: cell viability GI50, MCF7.
From the text: as §4, §2, §3

The next test concerns SKMEL-28 melanoma cells. Briefly: Quantitative videomicroscopy, SKMEL-28. The class given is cell-based, human. To be noted: 25 μM. How it is done: To obtain insight into the effectiveness of 2-aryl-2-(3-indolyl)acetohydroxamates against apoptosis-resistant cancers, computer-assisted phase-contrast microscopy (quantitative videomicroscopy) was employed to observe the phenotypic morphological changes in cancer cells as they are treated with these compounds. […] Based on the phase contrast pictures obtained by means of quantitative videomicroscopy, a global growth ratio (GGR) was calculated, which corresponds to the ratio of the mean number of cells present in a given image captured in the experiment (in this case after 24, 48 and 72 h) to the number of cells present in the first image (at 0 h). The ratio obtained in the 3aafa-treated experiment was then divided by the ratio obtained in the control. […] Thus, the GGR calculations are consistent with the MTT colorimetric data and indicate that it is the cytostatic properties associated with the hydroxamates that are responsible for their antiproliferative effects against apoptosis-resistant cancer cells, at least at relevant concentrations (slightly above the GI50 values).
Human cancer cell lines were obtained from the American Type Culture Collection (ATCC, Manassas, Va., USA), the European Collection of Cell Culture (ECACC, Salisbury, UK) and the Deutsche Sammlung von Mikroorganismen and Zellkulturen (DSMZ, Braunschweig, Germany). […]

Test [5] concerns GBM 031810 neurosphere cells. Briefly: Antiproliferative effect on patient-derived GBM neurosphere culture. The class given is cell-based. As to conditions: Homo sapiens, average IC50 ± SD from three determinations, read-out: GI50 in vitro, GBM 031810 (average IC50).
From the text: Given the ability of the hydroxamates to overcome drug resistance a few select compounds were further evaluated against glioma cells grown in neurosphere conditions, which are known to promote the growth of stem-like cells from human glioma tissue. Indeed, the neurospheres show the ability of self-renewal by regrowing in culture from individual cells, and can differentiate into multiple neural lineages and recapitulate human gliomas on both histological and genetic levels more faithfully than serum cultured glioma cell lines when injected into the brains of mice. Because, neurosphere cells are generally resistant to radiation and chemotherapy, the micromolar to submicromolar activity of the hydroxamates against the glioma neurosphere cell cultures is noteworthy (Table 4). […] It is worthy of note, that the unmethylated MGMT promoter leading to such temozolomide resistance is found in about half of all GBM patients, who respond poorly to temozolomide chemotherapy. To date, no alternative treatment exists for this group of patients.
as §2, with “Growth factors and heparin were renewed twice weekly. All cell lines were cultured in T25 flasks, maintained and grown at 37° C., 95% humidity, 5% CO2.” left out

Structures are written as SMILES.

For `O=C(NO)C(c1ccccc1)c1c(-c2ccc3ccccc3c2)[nH]c2ccccc12` (centres unmarked) [Compound 3aafa], the GI50 in test [1] was 8.9 ± 0.4 µM; in test [2] (Homo sapiens, A549, 48 h treatment, MTT, ± SD, read-out: GI50 in vitro, A549), 2.8 ± 0.4 µM; in test [4] it was 3.4 ± 0.3 µM. Besides, in test [2] (FIG. 3, increasing concentration), the “activity against cell populations resistant to proapoptotic agents, A549” value is given as “potent growth inhibitory properties against most of the cells”. Also, the “antiproliferative potency (GI50)” value in test [3] is on record as “single-digit micromolar”. The “phenotypic effect, SKMEL-28” value with SKMEL-28 melanoma cells (slightly exceeding GI50, FIG. 4) was “inhibits cancer cell proliferation without inducing cell death”. The “global growth ratio (GGR), SKMEL-28” value with SKMEL-28 melanoma cells (72 h observation, treated/control) is reported as “ca. 0.3”. Further, the IC50 in test [5] is 0.8 ± 0.6 µM.
